Read-outs that look alike come from different tables or passages of the source.
Key:
[1] = tested on: K562/Vcr30 chronic myeloid leukemia cells (cytostatic-resistant); assay: Viability of leukemia cells, K562/Vcr30; assay type: cell-based, human; details: K562/Vcr30, 72 h, read-out: IC50 for viability of leukemia cell lines
Description: (§1) The human chronic myeloid leukemia K562/S and K562/Vcr30 lines and the acute myeloid leukemia cell lines HL60/0 and HL60/Nov were obtained from ATCC. The K562/S and HL60/0 are wild type (non-resistant) cells, whereas K562/Vcr30 and HL60/Nov are cytostatic-resistant sublines. All leukemia cell lines were cultured in RPMI 1640 medium supplemented with 10% fetal bovine serum and with 2 mM glutamine, 1% benzyl-penicillin and streptomycin. The cells were grown in tissue culture flasks maintained at 95% air/5% CO2 atmosphere at 37° C. in a humidified incubator. For the experiments 25,000 cells were cultured in 60-mm plastic dishes or 96-well plastic plates. The experiments on leukemia cells were performed in collaboration with Associate professor Sigurd Vitols, Department of Pharmacology, Karolinska Hospital (Stockholm, Sweden).
(§2) Cell proliferation kit II (Roche Inc.) is based on calorimetric change of the yellow tetrazolium salt XTT in orange formazan dye by the respiratory chain of viable cells (Roehm, N W, et al., J Immunol Methods 142:257-265, 1991). Cells seeded at a concentration of 5000/well in 100 μl medium in a 96-well plate were treated with different drugs in the given concentration. After 24 or 48 h the cells were incubated, according to the manufacturer's protocol, with XTT labelling mixture. After 4 h the formazan dye is quantified using a scanning multiwell spectrophotometer with a 495-nm filter. The absorbance is directly correlated with number of viable cells. The standard absorbance curve was drawn by means of untreated cells seeded at a concentration of from 1000 to 10 000 cells/well with an increasing rate of 1000 cells/well. All standards and experiments were performed in triplicates.
(§3) The leukemia cell lines K562/S, K562/Vcr 30, HL60/0 and HL60/Nov were proven to express the IGF-1R. This was assayed by Western blotting analysis, as described in Methods and Experiment 1 and 2. The 4 leukemia cell lines were seeded in 96-well plates (medium volume in a well was 100 μl), in RPMI40 medium supplemented with fetal calf serum. After 24 h podophyllotoxin, deoxypodophyllotoxin and other derivatives were added at different concentrations for 72 h. Cell viability was then assayed (see above). IC50 values for each inhibitor and cell lines are shown below (Table 5). The results are based on 3 different experiments.

[2] = tested on: HL60/Nov acute myeloid leukemia cells (cytostatic-resistant); assay: Viability of leukemia cells, HL60/Nov; assay type: cell-based, human; details: read-out: IC50 for viability of leukemia cell lines
Description: as §1, §2, §3

FM55 melanoma cells = assay: Cell viability (XTT), FM55; assay type: cell-based, human
Description: as §2
(§4) 5 different types of cell lines were seeded in 96-well plates (medium volume in a well was 100 μl), at a concentration of 10,000 cells/cm^2 in Minimal Essential Medium supplemented with fetal calf serum. When the cells had reached a concentration of 65,000 cells/cm^2, they were treated with different doses of podophyllotoxin and deoxypodophyllotoxin for 48 h. Cell viability was then assayed (see above). IC50 values for each inhibitor and cell line, calculated as the concentration, resulting in a 50% decrease in cell survival, are shown below. The results are based on 4 different experiments.
FM55 melanoma cells were cultured in the same way as described in Experiment 3 and were treated with different doses of podophyllotoxin analogues as described in Experiment 3.

IGF-1R [3] = biological target: T1, IGF-1R (Homo sapiens, UniProt P08069); assay: IGF-1R phosphorylation/autophosphorylation in intact FM55 melanoma cells (immunoprecipitation, Western blotting, OD); assay type: cell-based; parameters: The cells were then isolated and subjected to immuno-precipitation of the IGF-1R; endogenous in cells; host or cells: FM55 melanoma cells; details: for Level of IGF-1R phosphorylation in intact cells: OD, control cells = 100%
Description: The isolated cells were lyzed in 10 ml ice-cold PBSTDS containing protease inhibitors (Carlberg, M., et al., J Biol Chem 271:17453-17462, 1996). 50 μl protein A or G agarose was added in 1 ml sample and incubated for 15 min at 4° C. on an orbital shaker. After centrifugation for 10 min at 10,000 r/min at 4° C. the supernatant was saved. The protein content was determined by a dye-binding assay with a reagent purchased from Bio-Rad. Bovine serum albumin was used as a standard. 15 μl Protein G Plus agarose and 5 μl anti-IGF-1R were added. After a 3 h incubation at 4° C. on an orbital shaker the precipitate was collected by pulse centrifugation in a micro centrifuge at 14,000×g for 10 s. The supernatant was discarded and the pellet was washed 3 times with PBSTDS.
Protein samples were solved in a 2×-sample buffer containing Laemmli buffer and 0.5% […] and boiled for 5 min at 96° C. Samples were separated by SDS-PAGE with a 4% stacking gel and 7.5% separation gel. Molecular weight markers (Bio Rad, Sweden) were run simultaneously in all experiments.
Following SDS-PAGE the proteins were transferred overnight to nitro-cellulose membranes (Hybond, Amersham, UK) and then blocked for 1 h at room temperature in a solution of 4% skimmed milk powder and 0.02% Tween 20 in PBS, pH 7.5. Incubations with the primary antibodies were performed for 1 h at room temperature, followed by 3 washes with PBS with Tween and incubation with the second antibody for 1 h room temperature. After another 3 washes the membranes were incubated with Streptavidin-labelled horseradish peroxidase for 30 min and then detected using Amersham ECL system (Amersham, UK) The films were scanned by Fluor-S (BioRad).
Melanoma cells (line FM55) were seeded in 6-cm dishes, at a concentration of 10,000 cells/cm^2 in Minimal Essential Medium supplemented with 10% fetal calf serum (FCS). […] Treatment with 0 μM represents untreated controls. The cells were then isolated and subjected to immuno-precipitation of the IGF-1R. The immunoprecipitates, containing purified IGF-1R, were fractionated by gel electrophoresis. Phosphorylation of IGF-1R was detected by an anti-phosphotyrosine antibody using Western blotting. The obtained signals represent phosphorylated IGF-1R and the intensity of signals represents amounts of phosphorylated IGF-1R. Details of the methods used are described above. The intensities are quantified by a scanner, which measures the optical density (OD) of the signals. For the control cells the OD is set at 100%. The blank (OD 0%) represents the background. The results given in Table 1 below are mean values of 3 experiments.
FM 55 melanoma cells were cultured in the same way as described in Experiment 1. When reaching a density of 65,000 cells/cm^2 in the dishes, they were treated for 1 h with 0.05 μM podophyllotoxin, deoxypodophyllotoxin, acetylpodophyllotoxin, epipodophyllotoxin, 4′-demethyl-podophyllotoxin and podophyllotoxone. The cells were then harvested for assay and quantification of IGF-1R autophosphorylation as described above. The values shown in Table 2 represent means of 3 experiments.
Target sequence in this assay (P08069 31-1367): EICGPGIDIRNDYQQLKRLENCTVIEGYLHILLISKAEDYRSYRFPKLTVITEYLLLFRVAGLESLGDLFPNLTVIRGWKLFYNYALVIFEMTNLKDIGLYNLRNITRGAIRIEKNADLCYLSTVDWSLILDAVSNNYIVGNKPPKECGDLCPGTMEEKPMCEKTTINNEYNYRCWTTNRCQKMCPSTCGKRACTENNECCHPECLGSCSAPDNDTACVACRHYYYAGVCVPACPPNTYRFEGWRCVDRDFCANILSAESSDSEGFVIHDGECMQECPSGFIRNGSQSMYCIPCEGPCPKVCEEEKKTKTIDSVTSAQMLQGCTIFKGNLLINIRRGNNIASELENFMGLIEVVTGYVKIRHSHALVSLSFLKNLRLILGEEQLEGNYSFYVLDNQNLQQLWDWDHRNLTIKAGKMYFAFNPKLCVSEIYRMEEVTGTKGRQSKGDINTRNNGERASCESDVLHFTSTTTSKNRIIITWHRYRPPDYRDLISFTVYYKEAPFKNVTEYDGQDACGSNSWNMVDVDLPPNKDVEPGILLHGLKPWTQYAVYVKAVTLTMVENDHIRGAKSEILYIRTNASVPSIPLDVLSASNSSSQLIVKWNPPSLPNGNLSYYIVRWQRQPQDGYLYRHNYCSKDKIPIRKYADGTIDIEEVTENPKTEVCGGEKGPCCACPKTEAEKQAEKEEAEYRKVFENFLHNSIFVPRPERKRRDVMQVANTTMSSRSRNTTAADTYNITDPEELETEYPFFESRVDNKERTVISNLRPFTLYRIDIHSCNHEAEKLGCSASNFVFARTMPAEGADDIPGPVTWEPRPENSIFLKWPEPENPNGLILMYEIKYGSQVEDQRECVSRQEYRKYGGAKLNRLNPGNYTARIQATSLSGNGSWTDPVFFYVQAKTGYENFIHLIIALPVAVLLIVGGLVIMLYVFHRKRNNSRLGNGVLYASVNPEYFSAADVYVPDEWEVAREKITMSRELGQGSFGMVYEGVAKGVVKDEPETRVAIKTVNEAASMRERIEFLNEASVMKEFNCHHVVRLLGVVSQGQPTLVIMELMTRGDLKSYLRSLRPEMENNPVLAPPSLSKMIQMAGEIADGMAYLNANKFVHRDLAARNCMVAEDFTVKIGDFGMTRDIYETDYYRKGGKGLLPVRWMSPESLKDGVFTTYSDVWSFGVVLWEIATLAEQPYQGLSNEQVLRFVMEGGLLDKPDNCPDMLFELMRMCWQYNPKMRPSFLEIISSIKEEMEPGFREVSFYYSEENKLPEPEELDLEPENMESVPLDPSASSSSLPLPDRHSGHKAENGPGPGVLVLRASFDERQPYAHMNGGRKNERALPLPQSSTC

[4] = tested on: K562/S chronic myeloid leukemia cells; assay: Viability of leukemia cells, K562/S; assay type: cell-based, human; details: 72 h, read-out: IC50 for viability of leukemia cell lines
Description: as §1, §2, §3

[5] = tested on: HL60 acute myeloid leukemia cells; assay: Viability of leukemia cells, HL60; assay type: cell-based, human; details: HL60, 72 h, read-out: IC50 for viability of leukemia cell lines
Description: as §1, §2, §3

rats = details: cited from earlier work; for LD50 in rats, fold higher than podophyllotoxin: relative to podophyllotoxin
[6] = tested on: MCF-7 breast cancer cells; assay: Cell viability (XTT), MCF-7; assay type: cell-based, human; details: 48 h
Description: as §2
as §4, with “IC50 values for each inhibitor and cell line, calculated as the concentration, resulting in a 50% decrease in cell survival, are shown below. The results are based on 4 different experiments.” left out

SK-MEL-28 melanoma cells = assay: Cell viability (XTT), SK-MEL-28; assay type: cell-based, human; details: 48 h
Description: as §2
as §4, with “IC50 values for each inhibitor and cell line, calculated as the concentration, resulting in a 50% decrease in cell survival, are shown below. The results are based on 4 different experiments.” left out

Water solubility = assay type: physicochemical
microtubules = details: cell free systems; cited from earlier work
IGF-1R beta-subunit = biological target: T2, IGF-1R beta-subunit (Homo sapiens, UniProt P08069); details: melanoma cells, 15 microM; cited from earlier work
T2 construct: host or cells: melanoma cells
T2 sequence (P08069 31-1367): as above

IGF-1R [7] = biological target: T1, IGF-1R; assay: Effect on IGF-1R (method not given)
Target sequence in this assay (P08069 31-1367, species assumed): as the sequence (P08069 31-1367) above

microtubuli = details: relative to podophyllotoxin; cited from earlier work
malignant cells = assay: Cell death in malignant cells; assay type: cell-based
insulin receptor kinase = insulin receptor kinase (Homo sapiens, UniProt P06213); details: cited from earlier work
Chain of insulin receptor kinase (P06213 28-1382): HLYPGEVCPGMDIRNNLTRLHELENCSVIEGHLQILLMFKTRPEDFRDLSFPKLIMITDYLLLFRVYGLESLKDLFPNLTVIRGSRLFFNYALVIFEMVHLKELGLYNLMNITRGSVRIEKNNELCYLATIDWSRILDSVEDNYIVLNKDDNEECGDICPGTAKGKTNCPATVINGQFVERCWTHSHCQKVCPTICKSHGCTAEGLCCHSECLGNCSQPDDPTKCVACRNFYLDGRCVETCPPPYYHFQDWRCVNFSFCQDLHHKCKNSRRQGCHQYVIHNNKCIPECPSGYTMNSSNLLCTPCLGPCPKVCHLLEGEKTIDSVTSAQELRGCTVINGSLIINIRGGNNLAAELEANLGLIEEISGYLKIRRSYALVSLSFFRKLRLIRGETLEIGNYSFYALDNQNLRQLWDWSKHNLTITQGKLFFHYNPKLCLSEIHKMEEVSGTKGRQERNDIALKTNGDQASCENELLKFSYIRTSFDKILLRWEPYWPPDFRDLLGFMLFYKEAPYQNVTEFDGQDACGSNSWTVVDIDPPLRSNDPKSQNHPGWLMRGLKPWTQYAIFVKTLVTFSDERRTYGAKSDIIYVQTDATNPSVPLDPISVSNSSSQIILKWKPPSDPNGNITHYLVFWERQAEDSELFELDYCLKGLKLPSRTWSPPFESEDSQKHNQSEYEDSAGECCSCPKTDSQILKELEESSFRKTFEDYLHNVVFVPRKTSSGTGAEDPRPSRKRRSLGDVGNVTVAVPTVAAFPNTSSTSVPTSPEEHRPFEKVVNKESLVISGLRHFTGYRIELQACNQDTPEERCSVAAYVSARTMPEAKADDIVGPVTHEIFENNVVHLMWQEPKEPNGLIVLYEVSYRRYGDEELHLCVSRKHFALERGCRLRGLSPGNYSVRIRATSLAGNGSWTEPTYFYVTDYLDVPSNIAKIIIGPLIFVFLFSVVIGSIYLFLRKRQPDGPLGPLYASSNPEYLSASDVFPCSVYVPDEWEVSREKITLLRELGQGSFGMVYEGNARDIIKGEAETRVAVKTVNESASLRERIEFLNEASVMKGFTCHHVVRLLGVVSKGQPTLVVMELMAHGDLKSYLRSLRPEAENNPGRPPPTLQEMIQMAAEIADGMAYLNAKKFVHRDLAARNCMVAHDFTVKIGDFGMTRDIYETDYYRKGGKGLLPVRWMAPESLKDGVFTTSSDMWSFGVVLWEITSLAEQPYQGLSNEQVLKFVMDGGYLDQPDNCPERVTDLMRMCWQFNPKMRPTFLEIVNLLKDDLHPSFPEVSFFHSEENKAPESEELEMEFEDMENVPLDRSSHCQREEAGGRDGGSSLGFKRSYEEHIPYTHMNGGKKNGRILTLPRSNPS

isolated IGF-1R kinase = isolated IGF-1R kinase (Homo sapiens, UniProt P08069); details: cited from earlier work
Chain of isolated IGF-1R kinase (P08069 31-1367): as the sequence (P08069 31-1367) above

[8] = FM55, Experiment 4 (Table 4), read-out: IC50 for viability of FM55 cells
[9] = FM55 cells, 0.05 μM, 1 h, podophyllotoxin = 1, mean of 3
[10] = FM55 cells, 1 μM, 1 h, mean of 3
[11] = FM55 cells, 15 μM, 1 h, mean of 3
[12] = FM55 cells, 60 μM, 1 h, mean of 3

COc1cc([C@@H]2c3cc4c(cc3[C@H](O)[C@H]3COC(=O)[C@H]23)OCO4)cc(OC)c1O [4′-demethylpodophyllotoxin]
IC50 [1]: 50 nM | IC50 ([2]; 72 h): 18 nM | IC50 (FM55 melanoma cells; [8]): 40 nM | Inhibitory effect on IGF-1R autophosphorylation in intact cells in relation to podophyllotoxin, Relative potency (IGF-1R [3]; [9]): 0.5 | IC50 [4]: 22 nM | IC50 [5]: 20 nM

COc1cc([C@@H]2c3cc4c(cc3[C@H](OC(C)=O)[C@H]3COC(=O)[C@H]23)OCO4)cc(OC)c1OC [Acetylpodophyllotoxin, acetylpodophyllotoxin]
IC50 [1]: 140 nM | IC50 ([2]; 72 h): 46 nM | IC50 (FM55 melanoma cells; [8]): 30 nM | LD50 in rats (rats): 185 mg/kg | Inhibitory effect on IGF-1R autophosphorylation in intact cells in relation to podophyllotoxin, Relative potency (IGF-1R [3]): 1.3 | inhibition of IGF-1R phosphorylation (in words) (IGF-1R [3]; FM55 cells, 0.05 μM, 1 h): potent inhibitors | IC50 [4]: 80 nM | IC50 [5]: 48 nM

COc1cc([C@@H]2c3cc4c(cc3C[C@H]3COC(=O)[C@@H]32)OCO4)cc(OC)c1OC [Deoxypodophyllotoxin, deoxypodophyllotoxin]
IC50 [1]: 4 nM | IC50 [6]: 30 nM | IC50 ([2]; 72 h): 2 nM | IC50 (FM55 melanoma cells; [8]): 40 nM | IC50 (FM55 melanoma cells; FM55, melanoma, 48 h (Table 3), read-out: IC50 for cell viability): 40 nM | LD50 in rats, fold higher than podophyllotoxin (rats): > 15 fold | inhibition of IGF-1R phosphorylation (in words) (IGF-1R [3]; FM55 cells, 0.05 μM, 1 h): potent inhibitors | Inhibitory effect on IGF-1R autophosphorylation in intact cells in relation to podophyllotoxin, Relative potency (IGF-1R [3]; [9]): 0.8 | IC50 (SK-MEL-28 melanoma cells): 40 nM | IC50 [4]: 3 nM | IC50 [5]: 3 nM | water solubility (Water solubility): about 0.01 mM

COc1cc([C@@H]2c3cc4c(cc3[C@@H](O)[C@H]3COC(=O)[C@H]23)OCO4)cc(OC)c1OC [Epipodophyllotoxin, epipodophyllotoxin]
IC50 ([1]; Homo sapiens): 450 nM | IC50 ([2]; Homo sapiens, HL-60, 72 h): 90 nM | LD50 in rats (rats): > 200 mg/kg | Inhibitory effect on IGF-1R autophosphorylation in intact cells in relation to podophyllotoxin, Relative potency (IGF-1R [3]; [9]): 0.5 | IC50 ([4]; Homo sapiens): 195 nM | IC50 ([5]; Homo sapiens, HL-60): 127 nM

COc1cc([C@@H]2c3cc4c(cc3[C@@H](O[C@@H]3O[C@@H]5CO[C@@H](C)O[C@H]5[C@H](O)[C@H]3O)[C@H]3COC(=O)[C@H]23)OCO4)cc(OC)c1O [Etoposide, etoposide]
effect on microtubules (microtubules): no effect on microtubules

O=c1c(-c2ccc(O)cc2)coc2cc(O)cc(O)c12 [Genistein, genistein]
Level of IGF-1R phosphorylation in intact cells (IGF-1R [3]; [10]): 100% | Level of IGF-1R phosphorylation in intact cells (IGF-1R [3]; [11]): 96% | Level of IGF-1R phosphorylation in intact cells (IGF-1R [3]; [12]): 35% | effect on IGF-1R phosphorylation (in words) (IGF-1R [3]; FM55 cells, 1, 15, 60 μM, genistein statement at 60 μM): partial inhibitory effect

COc1cc([C@@H]2c3cc4c(cc3C(=O)[C@H]3COC(=O)[C@H]23)OCO4)cc(OC)c1OC [Podophyllotoxone, podophyllotoxone]
IC50 [1]: > 500 nM | IC50 ([2]; 72 h): > 500 nM | Inhibitory effect on IGF-1R autophosphorylation in intact cells in relation to podophyllotoxin, Relative potency (IGF-1R [3]): 0.3 | IC50 [4]: > 500 nM | IC50 [5]: > 500 nM

CC/C(=C(\c1ccccc1)c1ccc(OCCN(C)C)cc1)c1ccccc1 [Tamoxifen, tamoxifen]
tyrosine phosphorylation of the IGF-1R beta-subunit (IGF-1R beta-subunit): efficiently blocked | Level of IGF-1R phosphorylation in intact cells (IGF-1R [3]; [10]): 95% | Level of IGF-1R phosphorylation in intact cells (IGF-1R [3]; [11]): 20% | Level of IGF-1R phosphorylation in intact cells (IGF-1R [3]; [12]): 10%

COc1cc([C@@H]2c3cc4c(cc3[C@H](O)[C@H]3COC(=O)[C@@H]23)OCO4)cc(OC)c1OC [picropodophyllin]
effect on IGF-1R / inhibition of IGF-1R activity (in words) (IGF-1R [7]): equipotent to podophyllotoxin | LD50 in rats, fold higher than podophyllotoxin (rats): more than 35 fold | affinity for microtubuli, fold lower than podophyllotoxin (microtubuli): 50 fold | cell death in malignant cells (in words) (malignant cells): equipotent to podophyllotoxin

COc1cc(C2c3cc4c(cc3C(OC3OC5COC(c6ccccc6)OC5C(O)C3O)C3COC(=O)C23)OCO4)cc(OC)c1OC [podophyllotoxin-4,6-O-benzylidene-β-D-glucopyranoside]
effect on IGF-1R / inhibition of IGF-1R activity (in words) (IGF-1R [7]): completely disappeared

N#C/C(=C\c1ccc(O)c(O)c1)C(=O)c1ccc(O)c(O)c1 [tyrphostin AG 538]
effect on insulin receptor kinase (insulin receptor kinase): also blocked the insulin receptor kinase | IC50 (isolated IGF-1R kinase): 400 nM

Source: patent US7709526B2, “Use of cyclolignans and new cyclolignans” (Biovitrum AB, priority 2001, dated 2010)
